# Data taken from patent US8580811B2 (Ligand Pharmaceuticals Incorporated, priority 2005, dated 2013).
# Target: T1, human AR (Homo sapiens, UniProt P10275)
# T1 construct: expressed in transfected cells; host or cells: COS-1 cells
# T1 sequence (P10275 1-920): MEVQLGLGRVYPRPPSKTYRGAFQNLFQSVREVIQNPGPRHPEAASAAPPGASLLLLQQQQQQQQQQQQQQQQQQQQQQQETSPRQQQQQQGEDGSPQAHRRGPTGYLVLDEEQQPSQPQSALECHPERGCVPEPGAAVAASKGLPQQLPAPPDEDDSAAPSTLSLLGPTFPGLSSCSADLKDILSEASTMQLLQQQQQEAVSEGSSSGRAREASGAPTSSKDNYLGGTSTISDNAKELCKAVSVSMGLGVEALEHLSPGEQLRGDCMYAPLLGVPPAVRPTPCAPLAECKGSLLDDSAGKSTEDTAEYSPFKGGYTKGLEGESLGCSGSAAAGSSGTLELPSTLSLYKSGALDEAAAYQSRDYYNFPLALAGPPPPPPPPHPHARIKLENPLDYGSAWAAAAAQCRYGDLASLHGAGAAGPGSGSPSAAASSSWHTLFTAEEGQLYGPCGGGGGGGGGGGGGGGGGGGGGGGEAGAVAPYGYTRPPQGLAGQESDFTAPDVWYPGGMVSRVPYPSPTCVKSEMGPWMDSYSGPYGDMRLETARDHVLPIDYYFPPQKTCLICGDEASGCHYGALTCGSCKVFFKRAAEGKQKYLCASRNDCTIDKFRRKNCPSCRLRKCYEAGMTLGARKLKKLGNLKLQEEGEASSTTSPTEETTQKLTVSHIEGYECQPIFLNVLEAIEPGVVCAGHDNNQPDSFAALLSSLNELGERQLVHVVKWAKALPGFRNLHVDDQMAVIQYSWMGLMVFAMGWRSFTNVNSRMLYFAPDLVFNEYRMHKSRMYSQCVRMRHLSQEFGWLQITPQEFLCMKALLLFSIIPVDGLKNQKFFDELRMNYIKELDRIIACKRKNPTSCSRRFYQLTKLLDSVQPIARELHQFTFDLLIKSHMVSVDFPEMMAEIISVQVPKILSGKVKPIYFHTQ
# Assay: IR Binding Assay: whole cell competitive binding of test compounds against 3H-DHT in COS-1 cells transfected with pRShAR
# Method in brief: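 COS-1 cells transfected with pRShAR plus β-Gal reporter, serum-starved 24 h, then exposed to 1 nM ³H-DHT with compounds at 10^−10 to 10^−6 M for 3 h at 37 °C. Bound ³H-DHT counted in lysates, normalized to β-Gal. IC50 from log-logit plot; Ki via Cheng-Prusoff using Kd from Scatchard saturation analysis.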
row,Compound,Ki [nM]
1,"CC1c2c(cc(F)c3[nH]c(=O)cc(Cl)c23)N(CC(F)(F)F)C1C (racemic) [Compound 151, (±)-9-Chloro-1,2-dimethyl-5-fluoro-3-(2,2,2-trifluoro-ethyl)-1,2,3,6-tetrahydro-pyrrolo[3,2-f]quinolin-7-one]",< 5
2,"CC1c2c(ccc3[nH]c(=O)cc(Cl)c23)N(CC(F)(F)F)C1c1ccc(O)cc1 (racemic) [Compound 155, (±)-9-Chloro-2-(4-hydroxyphenyl)-1-methyl-3-(2,2,2-trifluoroethyl)-1,2,3,6-tetrahydro-pyrrolo[3,2-f]quinolin-7-one]",> 10
3,"Cc1c(C)n(CC(F)(F)C(F)(F)F)c2ccc3[nH]c(=O)cc(Cl)c3c12 [Compound 215, 9-Chloro-1,2-dimethyl-3-(2,2,3,3,3-pentafluoropropyl)-3,6-dihydro-pyrrolo[3,2-f]-quinolin-7-one]",< 5
4,"CCCC1c2c(ccc3[nH]c(=O)cc(Cl)c23)N(CC(F)(F)F)C1C (racemic) [Compound 165, (±)-9-Chloro-2-methyl-1-propyl-3-(2,2,2-trifluoroethyl)-1,2,3,6-tetrahydro-pyrrolo[3,2-f]-quinolin-7-one]",< 5
5,"Cc1c(C)n(CCCNCCO)c2ccc3[nH]c(=O)cc(C(F)(F)F)c3c12 [Compound 289, 1,2-Dimethyl-3-[3-(2-hydroxy-ethylamino)-propyl]-9-trifluoromethyl-3,6-dihydro-pyrrolo[3,2-f]quinolin-7-one]",> 10
6,"CCCN1c2ccc3[nH]c(=O)cc(Cl)c3c2C(C)C1C (racemic) [Compound 137, (±)-9-Chloro-1,2-dimethyl-3-propyl-1,2,3,6-tetrahydro-pyrrolo[3,2-f]quinolin-7-one]",< 5
7,"CC1c2c(ccc3[nH]c(=O)cc(Cl)c23)N(Cc2ccccc2)C1C (racemic) [Compound 144, (±)-9-Chloro-1,2-dimethyl-3-phenylmethyl-1,2,3,6-tetrahydro-pyrrolo[3,2-f]quinolin-7-one]",5 to 10
8,"CCc1c(C)c2c3c(Cl)cc(=O)[nH]c3ccc2n1CC(F)(F)C(F)(F)F [Compound 223, 9-Chloro-2-ethyl-1-methyl-3-(2,2,3,3,3-pentafluoropropyl)-3,6-dihydro-pyrrolo[3,2-f]-quinolin-7-one]",< 5
9,"Cc1c(C)n(CC(F)(F)Cl)c2ccc3[nH]c(=O)cc(C(F)(F)F)c3c12 [Compound 220, 1,2-Dimethyl-3-(2-chloro-2,2-difluoroethyl)-9-trifluoromethyl-3,6-dihydro-pyrrolo[3,2-f]-quinolin-7-one]",< 5
10,"Cc1c(-c2cccc(C(F)(F)F)c2)n(CC(F)(F)F)c2ccc3[nH]c(=O)cc(Cl)c3c12 [Compound 201, 9-Chloro-1-methyl-2-(3-trifluoromethylphenyl)-3-(2,2,2-trifluoroethyl)-3,6-dihydro-pyrrolo[3,2-f]-quinolin-7-one]",> 10
11,"CCc1c(C)n(CC(F)(F)F)c2ccc3[nH]c(=O)cc(Cl)c3c12 [Compound 185, 9-Chloro-1-ethyl-2-methyl-3-(2,2,2-trifluoroethyl)-3,6-dihydro-pyrrolo[3,2-f]quinolin-7-one]",< 5
12,"Cc1c(-c2ccc(C(F)(F)F)cc2)n(CC(F)(F)F)c2ccc3[nH]c(=O)cc(Cl)c3c12 [Compound 202, 9-Chloro-1-methyl-2-(4-trifluoromethylphenyl)-3-(2,2,2-trifluoroethyl)-3,6-dihydro-pyrrolo[3,2-f]-quinolin-7-one]",> 10
13,"Cc1c(-c2ccccc2)n(CC(F)(F)F)c2ccc3[nH]c(=O)cc(Cl)c3c12 [Compound 187, 9-Chloro-1-methyl-2-phenyl-3-(2,2,2-trifluoroethyl)-3,6-dihydro-pyrrolo[3,2-f]quinolin-7-one]",< 5
14,"CCc1c(C)[nH]c2ccc3[nH]c(=O)cc(Cl)c3c12 [Compound 109, 9-Chloro-2-methyl-1-ethyl-3,6-dihydro-pyrrolo[3,2-f]quinolin-7-one]",> 10
15,"CC1Cc2c(ccc3[nH]c(=O)cc(Cl)c23)N1CC(F)(F)F (racemic) [Compound 131, (±)-9-Chloro-2-methyl-3-(2,2,2-trifluoro-ethyl)-1,2,3,6-tetrahydropyrrolo[3,2-f]quinolin-7-one]",> 10
16,"CCc1c(C)c2c3c(Cl)cc(=O)[nH]c3ccc2n1CC(O)C(F)(F)F (racemic) [Compound 232, (±)-9-Chloro-2-ethyl-1-methyl-3-(3,3,3-trifluoro-2-hydroxy-propyl)-3,6-dihydro-pyrrolo[3,2-f]quinolin-7-one]",< 5
17,"CC1c2c(ccc3[nH]c(=O)cc(Cl)c23)N(CC(F)(F)C(F)(F)C(F)(F)F)C1C (racemic) [Compound 168, (±)-9-Chloro-1,2-dimethyl-3-(2,2,3,3,4,4,4-heptafluorobutyl)-1,2,3,6-tetrahydro-pyrrolo[3,2-f]quinolin-7-one]",> 10
18,"CC1c2c(ccc3[nH]c(=O)cc(Cl)c23)N(CC(F)(F)F)C1c1cccc([N+](=O)[O-])c1 (racemic) [Compound 154, (±)-9-Chloro-1-methyl-2-(3-nitrophenyl)-3-(2,2,2-trifluoroethyl)-1,2,3,6-tetrahydro-pyrrolo[3,2-f]quinolin-7-one]",> 10
19,"Cc1c(C)n(C[C@@H](O)C(F)(F)F)c2ccc3[nH]c(=O)cc(C(F)(F)F)c3c12 [Compound 244, (+)-1,2-Dimethyl-3-(3,3,3-trifluoro-2-hydroxy-propyl)-9-trifluoromethyl-3,6-dihydro-pyrrolo[3,2-f]-quinolin-7-one]",> 10
20,"Cc1c(-c2ccco2)n(CC(F)(F)C(F)(F)F)c2ccc3[nH]c(=O)cc(Cl)c3c12 [Compound 261, 9-Chloro-1-methyl-2-(2-furyl)-3-(2,2,3,3,3-pentafluoropropyl)-3,6-dihydro-pyrrolo[3,2-f]quinolin-7-one]",< 5
21,"CCC1C(C)c2c(ccc3[nH]c(=O)cc(C(F)(F)F)c23)N1CC(F)(F)Cl (racemic) [Compound 178, (±)-3-(2-Chloro-2,2-difluoroethyl)-2-ethyl-1-methyl-9-trifluoromethyl-1,2,3,6-tetrahydro-pyrrolo[3,2-f]quinolin-7-one]",< 5
22,"CCc1c(C)c2c3c(C(F)(F)F)cc(=O)[nH]c3ccc2n1CC(O)C(F)(F)F (racemic) [Compound 247, (±)-2-Ethyl-1-methyl-3-(3,3,3-Trifluoro-2-hydroxy-propyl)-9-trifluoromethyl-3,6-dihydro-pyrrolo[3,2-f]quinolin-7-one]",< 5
23,"Cc1c(-c2ncco2)n(CC(F)(F)C(F)(F)F)c2ccc3[nH]c(=O)cc(Cl)c3c12 [Compound 266, 9-Chloro-1-methyl-2-(oxazol-2-yl)-3-(2,2,3,3,3-pentafluoropropyl)-3,6-dihydro-pyrrolo[3,2-f]quinolin-7-one]",< 5
24,"CC1c2c(ccc3[nH]c(=O)cc(Cl)c23)N(CC(F)(F)F)C1c1ccc(F)cc1F (racemic) [Compound 150, (±)-9-Chloro-2-(2,4-difluorophenyl)-1-methyl-3-(2,2,2-trifluoroethyl)-1,2,3,6-tetrahydropyrrolo-[3,2-f]quinolin-7-one]",> 10
25,"CC(C)=Cn1c(C)c(C)c2c3c(C(F)(F)F)cc(=O)[nH]c3ccc21 [Compound 238, 1,2-Dimethyl-3-(2-methylprop-1-enyl)-9-trifluoromethyl-3,6-dihydro-pyrrolo[3,2-f]-quinolin-7-one]",< 5
26,"CC1c2c(ccc3[nH]c(=O)cc(Cl)c23)N(CC(F)(F)Cl)C1C (racemic) [Compound 138, (±)-9-Chloro-3-(2-chloro-2,2-difluoro-ethyl)-1,2-dimethyl-1,2,3,6-tetrahydro-pyrrolo[3,2-f]-quinolin-7-one]",< 5
27,"Cc1c(C)n(CCOCCOCCO)c2ccc3[nH]c(=O)cc(C(F)(F)F)c3c12 [Compound 298, 3-{2-[2-(2-Hydroxy-ethoxy)-ethoxy]-ethyl}-1,2-dimethyl-9-trifluoromethyl-3,6-dihydro-pyrrolo[3,2-f]quinolin-7-one]",> 10
28,"Cc1c(C=O)c2c3c(Cl)cc(=O)[nH]c3ccc2n1Cc1ccccc1 [Compound 188, 3-Benzyl-9-chloro-2-methyl-7-oxo-6,7-dihydro-3H-pyrrolo[3,2-f]quinoline-1-carbaldehyde]",< 5
29,"Cc1ccc(-c2c(C)c3c4c(Cl)cc(=O)[nH]c4ccc3n2CC(F)(F)F)s1 [Compound 258, 9-Chloro-1-methyl-2-(5-methyl-2-thiophenyl)-3-(2,2,2-trifluoroethyl)-3,6-dihydro-pyrrolo[3,2-f]quinolin-7-one]",< 5
30,"CCC1C(C)c2c(ccc3[nH]c(=O)cc(Cl)c23)N1CC(F)(F)Cl (racemic) [Compound 176, (±)-9-Chloro-3-(2-Chloro-2,2-difluoroethyl)-2-ethyl-1-methyl-1,2,3,6-tetrahydro-pyrrolo[3,2-f]quinolin-7-one]",< 5
